Assay results: patent publication US20230142592A1, “AROMATIC COMPOUND, ORGANIC SEMICONDUCTOR LAYER AND ORGANIC THIN FILM TRANSISTOR” (TOSOH CORPORATION, priority 2020, published 2023)

Legend:
[1] = Solution for forming organic semiconductor layer: kept in solution state in toluene at 25° C.; assay type: physicochemical; details: heated to 50° C. to dissolve, allowed to cool at room temperature (25° C.)
Protocol: In the air, in a 10 mL sample tube, 0.87 mg of 2,7-di(2-phenylethyl)dithienobiphenylene (Compound 1) synthesized in Example 1 and 434 mg of toluene (FUJIFILM Wako Pure Chemical Corporation, pure grade) was added and the resultant was heated to 50° C. to dissolve, and then allowed to cool at room temperature (25° C.) to thereby prepare a solution for forming an organic semiconductor layer.
The solution for forming an organic semiconductor layer was kept in a solution state after 10 hours at 25° C. (concentration of Compound 1: 0.20% by weight), confirming that this was a compound suitable for film formation by drop casting and inkjet.

[2] = Bottom gate-bottom contact p-type organic thin film transistor, transfer characteristics; details: toluene solution, annealed at 130° C. for 10 min
Protocol: (§1) Furthermore, this organic thin film transistor was annealed at 130° C. for 10 min and then measured for an electric physical property.

[3] = generally; cited from earlier work
[4] = Solution for forming organic semiconductor layer: kept in solution state in toluene at 25° C.; assay type: physicochemical; details: .44 mg in 434 mg of toluene; heated to 50° C., allowed to cool at 25° C.
[5] = Top gate-bottom contact p-type organic thin film transistor, transfer characteristics; details: annealed at 130° C. for 10 min
Protocol: The solution for forming an organic semiconductor layer obtained in Example 2 was used to produce a top gate-bottom contact p-type organic thin film transistor.
as §1

Compound | concentration of solution kept in a solution state after 10 hours at 25° C. [1] | other results
2,7-di(2-(4-butylphenyl)ethyl)dithienobiphenylene [Compound 5] | 0.40 % by weight | –
2,7-di(2-(4-heptylphenyl)ethyl)dithienobiphenylene [Compound 6] | 0.20 % by weight | –
2,7-di(2-(4-propylphenyl)ethyl)dithienobiphenylene [Compound 4] | 0.10 % by weight | –
CCCCCCCCc1ccc2c(c1)sc1c3ccc(CCCCCCCC)cc3sc21 [2,7-dioctyl[1]benzothieno[3,2-b][1]benzothiophene, reference compound] | 0.20 % by weight | degradation in performance due to heat treatment [2]: transistor operation was not achieved
c1ccc(-c2ccc3c(c2)sc2c4ccc(-c5ccccc5)cc4sc32)cc1 [2,7-diphenyl[1]benzothieno[3,2-b][1]benzothiophene] | – | solubility in an organic solvent [3]: almost insoluble; solution state after cooling to room temperature (solubility) [4]: a solid was deposited
CCCCCCCCc1cc2ccc3cc4c(ccc5cc(CCCCCCCC)sc54)cc3c2s1 [2,8-dioctylanthra[1,2-b:5,6-b′]dithiophene, reference compound] | 0.20 % by weight | –
c1ccc(CCc2cc3ccc4c(c3s2)-c2ccc3cc(CCc5ccccc5)sc3c2-4)cc1 [Compound 1, 2,7-di(2-phenylethyl)dithienobiphenylene] | 0.20 % by weight | degradation in performance due to heat treatment [2]: almost no degradation in performance; melting point: 195 °C; degradation in performance due to heat treatment [5]: almost no degradation in performance
c1ccc(CCc2cc3ccc4cc5c(ccc6cc(CCc7ccccc7)sc65)cc4c3s2)cc1 [Compound 10, 2,8-di(2-phenylethyl)anthra[1,2-b:5,6-b′]dithiophene] | 0.20 % by weight | –
c1ccc(CCc2cc3ccc4c(c3s2)-c2ccc3ccsc3c2-4)cc1 [Compound 13, 2-(2-phenylethyl)dithienobiphenylene] | 1.00 % by weight | melting point: 161 °C
Cc1ccc(CCc2cc3ccc4c(c3s2)-c2ccc3ccsc3c2-4)cc1 [Compound 14, 2-(2-(4-methylphenyl)ethyl)dithienobiphenylene] | 1.00 % by weight | –
c1ccc(CCc2cc3ccc4cc5c(ccc6ccsc65)cc4c3s2)cc1 [Compound 15, 2-(2-phenylethyl)anthra[1,2-b:5,6-b′]dithiophene] | 0.40 % by weight | –
Cc1ccc(CCc2cc3ccc4cc5c(ccc6ccsc65)cc4c3s2)cc1 [Compound 16, 2-(2-(4-methylphenyl)ethyl)anthra[1,2-b:5,6-b′]dithiophene] | 0.50 % by weight | –
CCCCc1ccc(CCc2cc3ccc4cc5c(ccc6ccsc65)cc4c3s2)cc1 [Compound 17, 2-(2-(4-n-butylphenyl)ethyl)anthra[1,2-b:5,6-b′]dithiophene] | 1.00 % by weight | degradation in performance due to heat treatment [2]: almost no degradation in performance
CCCCCCCc1ccc(CCc2cc3ccc4cc5c(ccc6ccsc65)cc4c3s2)cc1 [Compound 18, 2-(2-(4-n-heptylphenyl)ethyl)anthra[1,2-b:5,6-b′]dithiophene] | 0.20 % by weight | –
CCCOc1ccc(CCc2cc3ccc4cc5c(ccc6ccsc65)cc4c3s2)cc1 [Compound 23, 2-(2-(4-propoxyphenyl)ethyl)anthra[1,2-b:5,6-b′]dithiophene] | 1.00 % by weight | –
COc1ccc(CCc2cc3ccc4cc5c(ccc6ccsc65)cc4c3s2)cc1 [Compound 24, 2-(2-(4-methoxyphenyl)ethyl)anthra[1,2-b:5,6-b′]dithiophene] | 0.10 % by weight | –
